Test results taken from US11279735B2, “Cyclic peptide antibiotics” (priority 2017, dated 2022).
Values after ≈ are worked out from the molar mass of the structure shown. *1 amine or outer side, *2 acyl side, *3 side chain or, on linkers, in order; H or OH if unused. Where a SMILES comes first, the peptide text is derived from it. [ ]: non-standard residue; d: D form. The star is where a group is joined. X2 = CCCCCC[C@@H](OC[C@@H](C)N[*:1])[C@@H](C)C(=O)[*:2]; X14 = CCCCCC[C@@H](OCCN[*:1])[C@@H](C)C(=O)[*:2]; Cyclobutyl(trans-3-NH2) = N[C@H]1C[C@H](*)C1; Gly(cHept) = N[C@H](C(=O)O)C1CCCCCC1; Propyl(3-guanidino) = N=C(N)NCCC*; NMeL = CN[C@@H](CC(C)C)C(=O)O; Chg = N[C@H](C(=O)O)C1CCCCC1; NMeNva = CCC[C@H](NC)C(=O)O; Dap = NC[C@H](N)C(=O)O

What follows are compounds tested on Escherichia coli (E. coli) strain CFT073 ATCC 700928. Conditions: ATCC 700928, 22 h.
Type: cell-based
Procedure: In vitro antimicrobial activity of each compound was determined by measuring minimal inhibitor concentrations (MICs) using the broth micro-dilution technique as approved by the Clinical and Laboratory Standards Institute (CLSI) (Methods for Dilution Antimicrobial Susceptibility Tests for Bacteria that Grow Aerobically; Approved Standard—Eighth Edition. CLSI document M07-A8. Wayne, Pa.: Clinical and Laboratroy Standards; 2009). Antibacterial activity was measure against Escherichia coli (E. coli) strain CFT073 ATCC 700928, which is a clinically relevant Gram-negative strain. Cells were inoculated onto plates of Mueller Hinton Agar and grown at 37° C. for 16-18 hours. Inocula suspensions were prepared by scraping cells into 1 mL of testing media (Mueller Hinton II cation adjusted Broth supplemented with 0.002% v/v Tween-80) and diluting to a final OD600 nm of 0.01.
Test compounds were prepared in DMSO at a concentration of 100 uM The compounds were tested under several different dilution formats and the data are reported in Tables 6, 7 and 8. In protocol 1, the compound stocks were diluted into testing media at a concentration of 64 μg/ml and serial 2-fold dilutions were made in the same media, in 96-well U bottom microtiter dishes, for a total of 10 compound concentrations. In protocol 2, the compound stocks were diluted into testing media at a concentration of 4 μg/mL and serial 2-fold dilutions were made in the same media, in 96-well U bottom microtiter dishes, for a total of 10 compound concentrations. In protocol 3, compound stocks were diluted into testing media at a concentration of 0.5 μg/mL, with serial 2-fold dilutions conducted as described above. In protocol 4, compound stocks were diluted into testing media at a concentration of 0.13 μg/mL, with serial 2-fold dilutions conducted as described above. Inocula suspensions were added to the 2-fold serial dilutions of test compounds to a final density of OD OD600 nm of 0.0005 and incubated at 35° C. for 22 hours.

First: CC[C@@H](C)[C@@H]1NC(=O)[C@H](CC(C)C)N(C)C(=O)[C@H](C)[C@@H](CCCCc2ccccc2)OC(=O)CNC(=O)[C@H]([C@H](C)O)NC(=O)[C@H](CN)NC1=O [Example 89, (6S,9S,12S,15S,18R,19R)-9-(aminomethyl)-15-isobutyl-16,18-dimethyl-19-(4-phenylbutyl)-6-[(1S)-1-hydroxyethyl]-12-[(1R)-1-methylpropyl]-1-oxa-4,7,10,13,16-pentazacyclononadecane-2,5,8,11,14,17-hexone]
Second: CCCCCCCCCC[C@H]1OC(=O)[C@H](C)NC(=O)[C@H]([C@H](C)O)NC(=O)[C@H](CN)NC(=O)[C@H]([C@H](C)CC)NC(=O)[C@H](CC(C)C)N(C)C(=O)[C@@H]1C [Example 3, (3S,6S,9S,12S,15S,18R,19R)-9-(aminomethyl)-12-((R)-sec-butyl)-19-decyl-6-((S)-1-hydroxyethyl)-15-isobutyl-3,16,18-trimethyl-1-oxa-4,7,10,13,16-pentaazacyclononadecane-2,5,8,11,14,17-hexaone]
The MIC of the first is 3.9-fold higher: 12 µM (≈ 8.43 µg/mL) for the first, 3.1 µM (≈ 2.25 µg/mL) for the second.

First: CCC[C@H]1C(=O)N[C@@H](C2CCCCCC2)C(=O)N[C@@H](CN)C(=O)N[C@@H](CO[C@H]2C[C@H](N)C2)C(=O)NCC(=O)O[C@H](CC2CC3CCC2C3)[C@@H](C)C(=O)N1C (stereo partly drawn) [Example 141, (6S,9S,12S,15S,18R,19R)-6-[(3-aminocyclobutoxy)methyl]-9-(aminomethyl)-12-cycloheptyl-16,18-dimethyl-19-(norbornan-2-ylmethyl)-15-propyl-1-oxa-4,7,10,13,16-pentazacyclononadecane-2,5,8,11,14,17-hexone]
Second: CCCCCC[C@H]1OCCNC(=O)[C@H](CO[C@H]2C[C@H](N)C2)NC(=O)[C@H](CN)NC(=O)[C@H](C2CCCCCC2)NC(=O)[C@H](CCC)N(C)C(=O)[C@@H]1C [Example 80, (6S,9S,12S,15S,18R,19R)-6-(((1r,3S)-3-Aminocyclobutoxy)methyl)-9-(aminomethyl)-12-cycloheptyl-19-hexyl-16,18-dimethyl-15-propyl-1-oxa-4,7,10,13,16-pentaazacyclononadecane-5,8,11,14,17-pentaone] (cyclo([Dap]S(Cyclobutyl(trans-3-NH2))[X14][NMeNva][Gly(cHept)]))
The MIC of the first is 5.5-fold lower: 2.2 µM (≈ 1.67 µg/mL) for the first, 12 µM (≈ 8.66 µg/mL) for the second.

Compared with `CCCCCC[C@H]1OC[C@@H](C)NC(=O)[C@H](COCCCNC(=N)N)NC(=O)[C@H](CN)NC(=O)[C@H](C2CCCCC2)NC(=O)[C@H](CC(C)C)N(C)C(=O)[C@@H]1C` [Example 82, 1-(3-(((3R,6S,9S,12S,15S,18R,19R)-9-(Aminomethyl)-12-cyclohexyl-19-hexyl-15-isobutyl-3,16,18-trimethyl-5,8,11,14,17-pentaoxo-1-oxa-4,7,10,13,16-pentaazacyclononadecan-6-yl)methoxy)propyl)guanidine] (cyclo([Chg][Dap]S(Propyl(3-guanidino))[X2][NMeL])), `CCC[C@H]1C(=O)N[C@@H](C2CCCCCC2)C(=O)N[C@@H](CN)C(=O)N[C@@H](COC2CC3(CC(N)C3)C2)C(=O)N[C@H](C)CO[C@H](CC2CC3(CCC3)C2)[C@@H](C)C(=O)N1C` (single isomer, unassigned; stereoisomer 2) [Example 170] is 5.6-fold lower in MIC: 4.4 µM (≈ 3.37 µg/mL) for the first, 0.78 µM (≈ 0.624 µg/mL) for the second.

`CC[C@@H](C)[C@@H]1NC(=O)[C@H](CC(C)C)N(C)C(=O)[C@H](C)[C@@H](CCC23CC4CC(CC(C4)C2)C3)OC(=O)CNC(=O)[C@H](CO)NC(=O)[C@H](CN)NC1=O` [Example 94, (6S,9S,12S,15S,18R,19R)-19-[2-(1-adamantyl)ethyl]-9-(aminomethyl)-6-(hydroxymethyl)-15-isobutyl-16,18-dimethyl-12-[(1R)-1-methylpropyl]-1-oxa-4,7,10,13,16-pentazacyclononadecane-2,5,8,11,14,17-hexone] gave an MIC of 4.4 µM (≈ 3.16 µg/mL).
